Assay results as given in ChEMBL document CHEMBL4393715, “Design, synthesis and biological evaluation of the thioether-containing lenalidomide analogs with anti-proliferative activities” (Eur J Med Chem, 2019).

Key:
[1] = Antiproliferative activity against human Mino cells measured after 72 hrs by CellTiter96 Aqueous non-radioactive cell proliferation assay; type: functional, cell-based
[2] = Half-life in BALB/c mouse at 5 mg/kg, iv and measured up to 24 hrs by LC-MS/MS analysis; type: ADME, organism-based; details: in vivo
[3] = Cmax in BALB/c mouse at 20 mg/kg, po and measured up to 24 hrs by LC-MS/MS analysis; type: ADME, organism-based; design: dose 20 mg/kg, route oral; details: in vivo
[4] = AUC (infinity) in BALB/c mouse at 5 mg/kg, iv and measured up to 24 hrs by LC-MS/MS analysis; type: ADME, organism-based; design: dose 5 mg/kg, route intravenous, time infinity; details: in vivo
[5] = AUC (infinity) in BALB/c mouse at 20 mg/kg, po and measured up to 24 hrs by LC-MS/MS analysis; type: ADME, organism-based; design: dose 20 mg/kg, route oral, time infinity; details: in vivo
[6] = Tmax in BALB/c mouse at 20 mg/kg, po and measured up to 24 hrs by LC-MS/MS analysis; type: ADME, organism-based; details: in vivo
[7] = MRT (infinity) in BALB/c mouse at 5 mg/kg, iv and measured up to 24 hrs by LC-MS/MS analysis; type: ADME, organism-based; details: in vivo
[8] = Volume of distribution at steady state in BALB/c mouse at 5 mg/kg, iv and measured up to 24 hrs by LC-MS/MS analysis; type: ADME, organism-based; details: in vivo, read-out: Vdss
[9] = Oral bioavailability in BALB/c mouse at 20 mg/kg and measured up to 24 hrs by LC-MS/MS analysis; type: ADME, organism-based; details: in vivo
[10] = Clearance in BALB/c mouse at 5 mg/kg, iv and measured up to 24 hrs by LC-MS/MS analysis; type: ADME, organism-based; details: in vivo
[11] = Terminal elimination half life in BALB/c mouse at 20 mg/kg, po and measured up to 24 hrs by LC-MS/MS analysis; type: ADME, organism-based; details: in vivo, read-out: LambdaZ (converted)
MV4-11 = assay: Antiproliferative activity against human MV411 cells measured after 168 hrs by CellTiter96 Aqueous non-radioactive cell proliferation assay; type: functional, cell-based; details: MV4-11, 168 h
MM1.S = assay: Antiproliferative activity against human MM1S cells measured after 168 hrs by CellTiter96 Aqueous non-radioactive cell proliferation assay; type: functional, cell-based
RPMI-8226 [12] = assay: Antitumour activity against human RPMI8226 cells xenografted in CB-17 SCID mouse assessed as inhibition of tumour growth at 60 mg/kg/day, po measured twice a week for 21 days relative to control; type: functional; design: scale not given: the % may be the effect or the level left
RPMI-8226 [13] = assay: Antitumour activity against human RPMI8226 cells xenografted in CB-17 SCID mouse assessed as tumour volume at 60 mg/kg/day, po measured after day 18 (reference value: 153 to 154 mm3); type: functional
[14] = Toxicity in CB-17 SCID mouse xenografted with human RPMI8226 cells assessed as body weight at 60 mg/kg/day, po and measured after day 18 (reference value: 20.1 to 20.4 g); type: organism-based; details: in vivo
RPMI-8226 [15] = assay: Antitumour activity against human RPMI8226 cells xenografted in CB-17 SCID mouse assessed as relative tumour volume at 60 mg/kg/day, po measured twice a week for 21 days; type: functional
[16] = Toxicity in CB-17 SCID mouse xenografted with human RPMI8226 cells assessed as mortality at 60 mg/kg/day, po and measured after day 18; type: organism-based; details: in vivo
RPMI-8226 [17] = assay: Antiproliferative activity against human RPMI8226 cells measured after 72 hrs by CellTiter96 Aqueous non-radioactive cell proliferation assay; type: functional, cell-based; details: RPMI-8226, 72 h
THP-1 = assay: Antiproliferative activity against human THP1 cells measured after 168 hrs by CellTiter96 Aqueous non-radioactive cell proliferation assay; type: functional, cell-based; details: THP-1, 168 h
U-266 = assay: Antiproliferative activity against human U266 cells measured after 72 hrs by CellTiter96 Aqueous non-radioactive cell proliferation assay; type: functional, cell-based; details: U-266, 72 h
Kasumi 1 = assay: Antiproliferative activity against human Kasumi-1 cells measured after 168 hrs by CellTiter96 Aqueous non-radioactive cell proliferation assay; type: functional, cell-based; details: Kasumi 1, 168 h
PBMC [18] = assay: Cytotoxicity against human PBMC cells by CellTiter96 Aqueous non-radioactive cell proliferation assay; type: cell-based
Raji = assay: Antiproliferative activity against human Raji cells measured after 168 hrs by CellTiter96 Aqueous non-radioactive cell proliferation assay; type: functional, cell-based
JeKo-1 = assay: Antiproliferative activity against human JeKo1 cells measured after 72 hrs by CellTiter96 Aqueous non-radioactive cell proliferation assay; type: functional, cell-based; details: JeKo-1, 72 h
Z-138 = assay: Antiproliferative activity against human Z138 cells measured after 72 hrs by CellTiter96 Aqueous non-radioactive cell proliferation assay; type: functional, cell-based; details: Z-138, 72 h
PBMC [19] = assay: Antiinflammatory activity in human PBMC cells assessed as reduction in LPS-induced TNF-alpha production preincubated for 1 hr followed by LPS addition and measured after 18 to 20 hrs by ELISA; type: functional, cell-based

`NC(=O)c1ccc(CSc2cccc3c2CN(C2CCC(=O)NC2=O)C3=O)cc1` (configuration not stated) gave an IC50 [1] of 35.4 nM.

Work on `CNC(=O)c1ccc(CSc2cccc3c2CN(C2CCC(=O)NC2=O)C3=O)cc1` (configuration not stated) yielded an IC50 [1] of 28.3 nM.

With `O=C1CCC(N2Cc3c(SCc4ccc(C(=O)N5CCCCC5)cc4)cccc3C2=O)C(=O)N1` (configuration not stated) the half-life [2] was 42 min, the Cmax [3] was 16.7 ng/mL and the AUC(0-inf) [4] was 424 ng·h/mL. It also gave an AUC(0-inf) [5] of 34.1 ng·h/mL, a Tmax [6] of 30 min and an IC50 [1] of 0.5 nM. It also gave an MRT inf [7] of 27 min, a Vd [8] of 5.31 L/kg and a bioavailability [9] of 2.9%. It also gave a clearance [10] of 197 mL/min/kg and a half-life [11] of 84.6 min.

With `CC1CC(C)CN(C(=O)c2ccc(CSc3cccc4c3CN(C3CCC(=O)NC3=O)C4=O)cc2)C1` (configuration not stated) the IC50 [1] was 6 nM.

In the case of `O=C1CCC(N2Cc3c(SCc4ccccc4Cl)cccc3C2=O)C(=O)N1` (configuration not stated), the IC50 [1] is reported as 11.6 nM, the IC50 (MV4-11) is reported as > 20000 nM and the IC50 (MM1.S) is reported as 1.1 nM.

With `CSc1cccc2c1CN(C1CCC(=O)NC1=O)C2=O` (configuration not stated) the IC50 [1] was 930 nM, the IC50 (MV4-11) was > 20000 nM and the IC50 (MM1.S) was 2.1 nM.

Compound `O=C1CC[C@H](N2Cc3c(OCc4ccc(CN5CCOCC5)cc4)cccc3C2=O)C(=O)N1` [IBERDOMIDE] has a half-life [2] of 58.2 min, a Cmax [3] of 2060 ng/mL and an Activity (RPMI-8226 [12]) of 27.07%. The Activity (RPMI-8226 [13]) was 517 mm3, the AUC(0-inf) [4] was 1940 ng·h/mL and the AUC(0-inf) [5] was 1810 ng·h/mL. It also gave a Tmax [6] of 8.4 min, an IC50 [1] of 112 nM and an Activity [14] of 22.1 g. The IC50 (MV4-11) was > 20000 nM, the MRT inf [7] was 43.8 min and the Vd [8] was 1.9 L/kg. The “fold change (FC)” value (RPMI-8226 [15]) was 3.42, the bioavailability [9] was 22.8% and the clearance [10] was 43.5 mL/min/kg. The Activity [16] was “Non-Toxic”, the IC50 (MM1.S) was 13 nM and the half-life [11] was 54 min.

In the case of `O=C1CCC(N2Cc3c(SCc4ccc(F)cc4)cccc3C2=O)C(=O)N1` (configuration not stated), the IC50 (RPMI-8226 [17]) is reported as 40 nM, the IC50 [1] is reported as 2.6 nM and the IC50 (THP-1) is reported as > 20000 nM. The IC50 (U-266) was 2.6 nM, the IC50 (Kasumi 1) was > 20000 nM and the IC50 (MV4-11) was > 20000 nM. For the same compound, the IC50 (PBMC [18]) was > 20000 nM, the IC50 (Raji) was > 20000 nM and the IC50 (JeKo-1) was > 20000 nM. For the same compound, the IC50 (Z-138) was > 20000 nM and the IC50 (MM1.S) was 0.9 nM.

In the case of `Nc1cccc2c1CN(C1CCC(=O)NC1=O)C2=O` (configuration not stated) [LENALIDOMIDE], the IC50 (RPMI-8226 [17]) is reported as > 20000 nM, the IC50 [1] is reported as > 20000 nM and the IC50 (THP-1) is reported as > 20000 nM. For the same compound, the IC50 (U-266) was > 20000 nM, the IC50 (Kasumi 1) was > 20000 nM and the IC50 (MV4-11) was > 20000 nM. For the same compound, the IC50 (PBMC [18]) was > 20000 nM, the IC50 (Raji) was > 20000 nM and the IC50 (JeKo-1) was > 20000 nM. For the same compound, the IC50 (Z-138) was > 20000 nM and the IC50 (MM1.S) was 50 nM.

For `Cc1ccc(CSc2cccc3c2CN(C2CCC(=O)NC2=O)C3=O)cc1` (configuration not stated), the IC50 (RPMI-8226 [17]) was 5.4 nM, the IC50 [1] was 2.9 nM and the IC50 (THP-1) was > 20000 nM. For the same compound, the IC50 (U-266) was 5.6 nM, the IC50 (Kasumi 1) was > 20000 nM and the IC50 (MV4-11) was > 20000 nM. For the same compound, the IC50 (PBMC [18]) was > 20000 nM, the IC50 (Raji) was > 20000 nM and the IC50 (JeKo-1) was > 20000 nM. The IC50 (Z-138) was > 20000 nM and the IC50 (MM1.S) was 0.4 nM.

With `COC(=O)c1ccc(CSc2cccc3c2CN(C2CCC(=O)NC2=O)C3=O)cc1` (configuration not stated) the IC50 [1] was 7.4 nM.

With `O=C1CCC(N2Cc3c(SCc4cccc(F)c4)cccc3C2=O)C(=O)N1` (configuration not stated) the IC50 [1] was 4.3 nM, the IC50 (MV4-11) was > 20000 nM and the IC50 (MM1.S) was 0.9 nM.

For `O=C1CCC(N2Cc3c(SCc4ccc(C(=O)N5CCOCC5)cc4)cccc3C2=O)C(=O)N1` (configuration not stated), the IC50 [1] was 1.9 nM.

For `CC(C)(C)OC(=O)c1ccc(CSc2cccc3c2CN(C2CCC(=O)NC2=O)C3=O)cc1` (configuration not stated), the IC50 [1] was 1.1 nM.

For `Cc1cccc(CSc2cccc3c2CN(C2CCC(=O)NC2=O)C3=O)c1` (configuration not stated), the IC50 [1] was 3.3 nM, the IC50 (MV4-11) was > 20000 nM and the IC50 (MM1.S) was 0.4 nM.

In the case of `Nc1cccc2c1C(=O)N(C1CCC(=O)NC1=O)C2` (configuration not stated), the IC50 (PBMC [19]) is reported as > 100000 nM.

`O=C1CCC(N2Cc3c(cccc3[S+]([O-])Cc3ccc(CN4CCOCC4)cc3)C2=O)C(=O)N1` (configuration not stated) gave an IC50 [1] of 100 nM.
